pIC50: −log10 of the molar value.
Assays:
Experiment in all cases: PROLiFiler-Cell Panel Screening (CellTiterGlo)
Type in all cases: cell-based
A2058 = conditions: Homo sapiens; Skin, A2058, 72 hours
Protocol: (§1) For the assays, cells were seeded in white cell culture-treated flat and clear bottom 384-well multiwall plates and incubated at 37° C. overnight before the calix[4]arene of the formula (2) or the reference compound were added. After incubation for 72 hours at 37° C. at 5% or 10% CO2 depending on the medium, cell plates were equilibrated to room temperature (i.e. 20° C.) for one hour, CellTiterGlo® reagent from the firm Promega was added and luminescence was measured approximately an hour later using a luminometer.
(§2) Raw data were converted into percent cell viability relative to the high and low control, which were set to 100% and 0%, respectively.

A498 = conditions: Homo sapiens; Kidney, A498, 72 hours
Protocol: as §1, §2

A549 = conditions: Homo sapiens; Lung, A549, 72 hours
Protocol: as §1, §2

AsPC-1 = conditions: Homo sapiens, ASPC1; Pancreas, AsPC-1, 72 hours
Protocol: as §1, §2

BEN = conditions: Lung, 72 hours
Protocol: as §1, §2

BT-20 = conditions: Homo sapiens; Breast, BT-20, 72 hours
Protocol: as §1, §2

COV434 = conditions: Ovary, COV434, 72 hours
Protocol: as §1, §2

Caki-1 = conditions: Homo sapiens; Kidney, Caki-1, 72 hours
Protocol: as §1, §2

Caki-2 = conditions: Homo sapiens; Kidney, Caki-2, 72 hours
Protocol: as §1, §2

Colo 205 = conditions: Homo sapiens; Colon, Colo 205, 72 hours
Protocol: as §1, §2

DU-145 = conditions: Homo sapiens; Prostate, DU-145, 72 hours
Protocol: as §1, §2

DV90 = conditions: Homo sapiens, DV-90; Lung, DV90, 72 hours
Protocol: as §1, §2

EFM-192A = conditions: Breast, 72 hours
Protocol: as §1, §2

EFO-27 = conditions: Homo sapiens; Ovary, EFO-27, 72 hours
Protocol: as §1, §2

EPLC-272H = conditions: Homo sapiens, Lung, 72 hours
Protocol: as §1, §2

H1299 = conditions: Homo sapiens, NCI-H1299; Lung, H1299, 72 hours
Protocol: as §1, §2

HCC 1569 = conditions: Homo sapiens, HCC1569; Breast, HCC 1569, 72 hours
Protocol: as §1, §2

HCC38 = conditions: Homo sapiens; Breast, HCC38, 72 hours
Protocol: as §1, §2

HCT-15 = conditions: Homo sapiens; Colon, HCT-15, 72 hours
Protocol: as §1, §2

HuH7 = conditions: Homo sapiens, Huh-7; Liver, HuH7, 72 hours
Protocol: as §1, §2

JIMT-1 = conditions: Homo sapiens; Breast, JIMT-1, 72 hours
Protocol: as §1, §2

LnCap = conditions: Homo sapiens, Prostate, 72 hours
Protocol: as §1, §2

MDA-MB-468 = conditions: Homo sapiens; Breast, MDA-MB-468, 72 hours
Protocol: as §1, §2

MOLM-13 = conditions: Homo sapiens; Blood, MOLM-13, 72 hours
Protocol: as §1, §2

MV4-11 = conditions: Homo sapiens; Blood, MV4-11, 72 hours
Protocol: as §1, §2

NCI-H1563 = conditions: Homo sapiens; Lung, NCI-H1563, 72 hours
Protocol: as §1, §2

NCI-H1838 = conditions: Homo sapiens; Lung, NCI-H1838, 72 hours
Protocol: as §1, §2

SK-OV3 = conditions: Homo sapiens, SK-OV-3; Ovary, SK-OV3, 72 hours
Protocol: as §1, §2

SNU-1 = conditions: Homo sapiens, SNU1; Stomach, SNU-1, 72 hours
Protocol: as §1, §2

SNU840 = conditions: SNU-840; Ovary, SNU840, 72 hours
Protocol: as §1, §2

SW-1783 = conditions: Homo sapiens, SW1783; Brain, SW-1783, 72 hours
Protocol: as §1, §2

SW480 = conditions: Homo sapiens; Colon, SW480, 72 hours
Protocol: as §1, §2

SW620 = conditions: Homo sapiens, SW-620; Colon, SW620, 72 hours
Protocol: as §1, §2

T84 = conditions: Homo sapiens; Colon, T84, 72 hours
Protocol: as §1, §2

T98G = conditions: Homo sapiens, Brain, 72 hours
Protocol: as §1, §2

U2OS = conditions: Homo sapiens, Bone, 72 hours
Protocol: as §1, §2

U87MG = conditions: Homo sapiens, U-87 MG, Brain, 72 hours
Protocol: as §1, §2

CCCOc1c2cccc1Cc1cccc(c1OCc1nccn1C)Cc1cccc(c1OCCC)Cc1cccc(c1OCc1nccn1C)C2 [(2)]
pIC50 (A2058): 6.03 | pIC50 (A498): 5.76 | pIC50 (A549): 5.98 | pIC50 (AsPC-1): 6.08 | pIC50 (BEN): 5.43 | pIC50 (BT-20): 5.90 | pIC50 (COV434): 6.14 | pIC50 (Caki-1): 5.49 | pIC50 (Caki-2): 5.58 | pIC50 (Colo 205): 5.74 | pIC50 (DU-145): 5.71 | pIC50 (DV90): 5.67 | pIC50 (EFM-192A): 5.26 | pIC50 (EFO-27): 5.82 | pIC50 (EPLC-272H): 5.83 | pIC50 (H1299): 5.89 | pIC50 (HCC 1569): 5.53 | pIC50 (HCC38): 5.60 | pIC50 (HCT-15): 5.69 | pIC50 (HuH7): 6.27 | pIC50 (JIMT-1): 5.57 | pIC50 (LnCap): 5.92 | pIC50 (MDA-MB-468): 6.13 | pIC50 (MOLM-13): 5.77 | pIC50 (MV4-11): 6.17 | pIC50 (NCI-H1563): 5.46 | pIC50 (NCI-H1838): 5.46 | pIC50 (SK-OV3): 5.79 | pIC50 (SNU-1): 5.59 | pIC50 (SNU840): 5.94 | pIC50 (SW-1783): 5.47 | pIC50 (SW480): 5.82 | pIC50 (SW620): 5.75 | pIC50 (T84): 5.61 | pIC50 (T98G): 5.51 | pIC50 (U2OS): 5.97 | pIC50 (U87MG): 5.61

CC(C)C[C@H](NC(=O)[C@H](Cc1ccccc1)NC(=O)c1cnccn1)B(O)O [bortezomib, reference compound]
pIC50 (A2058): 8.03 | pIC50 (A498): 8.34 | pIC50 (A549): 7.86 | pIC50 (AsPC-1): 7.90 | pIC50 (BEN): 7.27 | pIC50 (BT-20): 7.53 | pIC50 (COV434): 8.03 | pIC50 (Caki-1): 8.27 | pIC50 (Caki-2): 7.89 | pIC50 (Colo 205): 8.17 | pIC50 (DU-145): 8.17 | pIC50 (DV90): 8.13 | pIC50 (EFM-192A): 8.32 | pIC50 (EFO-27): 7.88 | pIC50 (EPLC-272H): 8.14 | pIC50 (H1299): 8.07 | pIC50 (HCC 1569): 8.29 | pIC50 (HCC38): 8.27 | pIC50 (HCT-15): 8.03 | pIC50 (HuH7): 8.37 | pIC50 (JIMT-1): 8.07 | pIC50 (LnCap): 7.85 | pIC50 (MDA-MB-468): 8.38 | pIC50 (MOLM-13): 8.41 | pIC50 (MV4-11): 8.50 | pIC50 (NCI-H1563): 7.71 | pIC50 (NCI-H1838): 7.47 | pIC50 (SK-OV3): 7.62 | pIC50 (SNU-1): 7.54 | pIC50 (SNU840): 8.23 | pIC50 (SW-1783): 8.07 | pIC50 (SW480): 8.28 | pIC50 (SW620): 8.32 | pIC50 (T84): 7.92 | pIC50 (T98G): 7.94 | pIC50 (U2OS): 8.23 | pIC50 (U87MG): 8.10

Source: patent US20260015339A1, “CALIX[4]ARENES WITH HIGH ANTICANCER ACTIVITY” (UNIVERSITE GRENOBLE ALPES, priority 2023, published 2026)
